Read-outs that look alike come from different tables or passages of the source. Each block holds one molecule with its values, some of them ahead of it. Square brackets hold non-standard residues; d marks the D form. Peptide text beside a SMILES is read from it. * marks the point of attachment. X1 = CC(C)(O/N=C(\C(=O)N[C@@H]1C(=O)N2C(C(=O)[O-])=C(C[n+]3ccccc3)CS[C@H]12)c1csc(N)n1)C(=O)NCCCCCCN1C(=O)CC(*)C1=O; X2 = C[C@H]1[C@H](NC(=O)/C(=N\OC(C)(C)C(=O)NCCCCCCN2C(=O)CC(*)C2=O)c2csc(N)n2)C(=O)N1S(=O)(=O)O
Key:
B. subtilis DSM 10 = assay: microbe, parasite or virus in culture; type: cell-based
Protocol: (§1) The minimum inhibitory concentration (MIC) of the β‐lactam–peptide conjugates was determined by broth microdilution as previously described.^[ [17] ^] Briefly, in cation‐adjusted MHB II medium, a twofold serial dilution of the compounds was prepared in 96‐well round‐bottom polystyrene or polypropylene microtiter plates with each well containing 50 µL. The plates were inoculated with 50 µL bacterial suspension and the final inoculum, in a total volume of 100 µL, contained 5 × 10^5 CFU mL^−1. The microplates were incubated for 20 h at 37 ± 1 °C. The lowest concentration preventing visible bacterial growth was considered the MIC value. For susceptibility testing of combinations of β‐lactamase‐inhibitors with either a β‐lactam antibiotic or a β‐lactam–peptide conjugate, fixed concentrations of the inhibitors according to the EUCAST (European Committee on Antimicrobial Susceptibility Testing) guidelines (clavulanic acid = 2 mg L^−1, avibactam = 4 mg L^−1) were used.

E. coli ATCC 25 922 (–) = assay: microbe, parasite or virus in culture; type: cell-based; details: Escherichia coli, 20 h; E. coli ATCC 25922 (no β‐lactamase); combinations: avibactam fixed 4 mg L^−1, clavulanic acid 2 mg L^−1; median (n = 3)
Protocol: as §1

[1] = tested on: A. baumannii SC300007 (Oxa23); assay: microbe, parasite or virus in culture; type: cell-based; details: Acinetobacter baumannii, 20 h, combinations: avibactam fixed 4 mg L^−1, clavulanic acid 2 mg L^−1, median (n = 3)
Protocol: as §1

E. faecalis ATCC 29212 = assay: microbe, parasite or virus in culture; type: cell-based; details: E. faecalis ATCC 29212, median (n = 3)
Protocol: as §1

[2] = tested on: E. casseliflavus ATCC 700327; assay: microbe, parasite or virus in culture; type: cell-based; details: E. casseliflavus ATCC 700327, median (n = 3)
Protocol: as §1

Scintigraphy in mice = type: in vivo, Swiss mice
Protocol: To enable radiolabeling of the β‐lactam–peptide conjugates, their peptide sequence was elongated by an N‐terminal D‐tyrosine. […] The solution was mixed with 5 MBq of iodine‐125 and radiolabeling was performed using the chloramine T method as previously described.^[ [35] ^] After 30 s, the reaction was quenched by the addition of a saturated methionine solution and the radiolabeled compound purified by reversed‐phase preparative radio‐HPLC (1100 series, Agilent Technologies, Santa Clara, CA, USA). Analysis was performed by analytical radio‐HPLC (1100 series, Agilent Technologies, Santa Clara, CA, USA) using a linear gradient from water (+ 0.1% TFA) to acetonitrile (+ 0.1% TFA) over 5 min at a flow rate of 2 mL min^−1.
All animal studies were approved by the Animal Care and Use committees from Regierungspräsidium Karlsruhe (Karlsruhe, Germany; reference number 35–9185.81/G‐199/21; date of approval: November 23, 2021). To obtain scintigraphic images, 1–3 MBq of the respective ^125I‐radiolabeled β‐lactam–peptide conjugate was intravenously injected into the tail vein of isoflurane anaesthetized female Wistar rats or Swiss mice. Scintigraphic images were taken with a γ‐camera (Biospace Lab, Nesles‐la‐Vallée, France) at 10 min, 1, 2, 3, and 24 h after injection of the compounds.

[3] = tested on: K. pneumoniae 0 6841/Nr.45 (Oxa48); assay: microbe, parasite or virus in culture; type: cell-based; details: Klebsiella pneumoniae, 20 h; K. pneumoniae 06841/Nr.45 (Oxa48); combinations: avibactam fixed 4 mg L^−1, clavulanic acid 2 mg L^−1; median (n = 3)
Protocol: as §1

[4] = tested on: K. pneumoniae BL809453 (KPC); assay: microbe, parasite or virus in culture; type: cell-based; details: Klebsiella pneumoniae, 20 h, combinations: avibactam fixed 4 mg L^−1, clavulanic acid 2 mg L^−1, median (n = 3)
Protocol: as §1

[5] = tested on: K. pneumoniae ATCC 700 603 (SHV‐18); assay: microbe, parasite or virus in culture; type: cell-based; details: Klebsiella pneumoniae, 20 h; K. pneumoniae ATCC 700603 (SHV‐18); combinations: avibactam fixed 4 mg L^−1, clavulanic acid 2 mg L^−1; median (n = 3)
Protocol: as §1

PBP2A = target: T1, PBP2A (Bacillus subtilis, UniProt P54488); assay: Gel‐based PBP affinity assay (Bocillin FL competition); type: binding; details: B. subtilis membrane fractions, competition with Bocillin FL penicillin; compared with parent β‐lactam
T1 construct: endogenous in cells; host or cells: B. subtilis DSM 10, extracted membrane protein fraction
T1 sequence (P54488 whole entry): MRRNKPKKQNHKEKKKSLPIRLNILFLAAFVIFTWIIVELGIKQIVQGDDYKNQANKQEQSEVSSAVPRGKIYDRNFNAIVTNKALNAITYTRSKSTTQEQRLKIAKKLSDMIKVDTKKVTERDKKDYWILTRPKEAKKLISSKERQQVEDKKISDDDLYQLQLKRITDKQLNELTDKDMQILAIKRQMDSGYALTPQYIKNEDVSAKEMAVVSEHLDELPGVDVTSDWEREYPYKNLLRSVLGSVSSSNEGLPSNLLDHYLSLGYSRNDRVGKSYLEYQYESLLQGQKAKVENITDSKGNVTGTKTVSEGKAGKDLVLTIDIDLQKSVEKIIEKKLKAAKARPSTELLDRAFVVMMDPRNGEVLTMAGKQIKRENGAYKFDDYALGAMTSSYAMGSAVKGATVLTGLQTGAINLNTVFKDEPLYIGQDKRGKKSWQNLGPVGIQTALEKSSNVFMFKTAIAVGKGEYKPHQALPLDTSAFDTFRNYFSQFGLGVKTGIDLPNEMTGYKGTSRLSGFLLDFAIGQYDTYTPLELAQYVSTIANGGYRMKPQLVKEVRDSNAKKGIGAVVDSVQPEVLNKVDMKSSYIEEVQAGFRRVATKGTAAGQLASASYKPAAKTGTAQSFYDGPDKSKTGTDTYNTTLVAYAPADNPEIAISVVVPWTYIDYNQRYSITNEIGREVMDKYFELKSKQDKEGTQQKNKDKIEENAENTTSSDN
Protocol: B. subtilis DSM 10 and E. faecalis ATCC 51 299 (equal to DSM 12 956) membrane protein fractions were extracted according to the protocol of Dean et al. with minor modifications.^[ [34] ^] From a growing overnight bacterial culture, 3 L of LB (Luria‐Bertani) medium or TSB (tryptic soy broth) were inoculated with B. subtilis DSM 10 and E. faecalis ATCC 51 299, respectively, to obtain an OD600 = 0.3. The cultures were grown to an OD600 = 0.6–0.8 while shaking at 37 °C and cells were harvested by centrifugation at 4000 g for 30 min at 4 °C. The resulting pellet was washed twice with pre‐cooled PBS and resuspended in 30 mL of ice‐cooled PBS. The suspension was sonicated on ice (10 cycles of 30 s at 50% power for B. subtilis; 12 cycles of 30 s at 80% power for E. faecalis; 2 min intervals between cycles) using an Omni Ruptor 4000 ultrasonic homogenizer (Omni International, Kennesaw, GA, USA). Afterwards, the suspension was centrifuged at 7000 g for 10 min at 4 °C. The clear supernatant was transferred into a 50 mL polypropylene tube and centrifuged in a Beckman Coulter centrifuge equipped with a JA‐20 fixed‐angle rotor (Beckman Coulter, Krefeld, Germany) at 50 000 g for 1 h at 4 °C. The resulting pellet was washed with ice‐cold PBS and centrifuged a second time. The pellet was resuspended in 2 mL PBS and aliquots were stored at −80 °C. The protein content was determined using Bradford reagent (VWR International, Darmstadt, Germany) and Pierce BCA (bicinchoninic acid) protein assay kits (Thermo Fisher Scientific, Waltham, MA, USA) for membrane fractions of B. subtilis and E. faecalis, respectively.
Each dilution was combined with B. subtilis (30 µg) or E. faecalis (15 µg) extracted membrane fractions. As reference samples, membrane fractions incubated with only PBS were prepared. Reaction mixtures were incubated for 20 min at 37 °C while shaking at 400 rpm. Next, Bocillin FL penicillin (Thermo Fisher Scientific, Waltham, MA, USA) was added to obtain a final concentration of 20 µM in the mixture. Samples were incubated for 30 min at 37 °C while shaking at 400 rpm. To denature the samples, 4× Laemmli sample buffer (Bio‐Rad Laboratories, Feldkirchen, Germany) was added, and the samples incubated for 10 min at 70 °C. Afterwards, the samples were centrifuged for 5 min at 13 000 rpm. Samples were separated by SDS‐PAGE using a 10% Tris‐glycine gel for 100 min at 180 V. The bands were visualized using a Typhoon FLA 9500 imager (GE Healthcare, Chicago, IL, USA) with excitation at 473 nm. The gel images were analyzed using ImageJ software. Brightness and contrast were adjusted to improve the signal‐to‐noise ratio and the background signal was subtracted over the whole image. Next, integrated density values of the gel bands were measured and Bocillin FL penicillin labeling of each PBP in antibiotic‐treated samples were set in proportion to the reference sample. IC50 values were calculated with GraphPad Prism software (version 8.0.1) using inhibitor versus normalized response variable slope and least‐squares fit. […] The mean was calculated using the IC50 values of at least two independent assays for each antibiotic.

[6] = Swiss mice, i.v., ^125I‐labelled, scintigraphy
[7] = Bacillus subtilis, DSM10, B. subtilis DSM 10, median (n = 3), read-out: MIC

Compound: C[C@H]1[C@H](NC(=O)/C(=N\OC(C)(C)C(=O)O)c2csc(N)n2)C(=O)N1S(=O)(=O)O [AZT, aztreonam]
MIC (B. subtilis DSM 10; Bacillus subtilis, DSM10): 512 µg/mL | MIC (E. coli ATCC 25 922 (–)): 0.06 µg/mL | MIC [1]: 64 µg/mL

MIC (B. subtilis DSM 10; B. subtilis DSM 10, median (n = 3)): > 64 µg/mL | MIC (E. faecalis ATCC 29212): > 64 µg/mL | MIC [2]: > 64 µg/mL
Compound: NC(=O)CCCCCN1C(=O)C=CC1=O [BB linker, 6‐maleinimidohexanamide linker]

Compound: CC(C)(O/N=C(\C(=O)N[C@@H]1C(=O)N2C(C(=O)[O-])=C(C[n+]3ccccc3)CS[C@H]12)c1csc(N)n1)C(=O)NCCCCCCN1C(=O)CC(SC[C@H](NC(=O)[C@H](CCCCN)NC(=O)[C@H](CCCCN)NC(=O)[C@H](CCCCN)NC(=O)[C@H](CCCCN)NC(=O)[C@H](CCCCN)NC(=O)[C@H](CCCCN)NC(=O)[C@H](N)Cc2ccc(O)cc2)C(N)=O)C1=O (stereo partly shown) [CTZ-yK6] (H-[dY]KKKKKKC(X1)-NH2; N-terminus assumed)
elimination route / biodistribution (Scintigraphy in mice; [6]): eliminated by the kidneys

MIC [3]: > 64 µg/mL | MIC (B. subtilis DSM 10; [7]): 0.1 µg/mL | MIC (E. coli ATCC 25 922 (–)): 6 µg/mL | MIC [4]: > 64 µg/mL | MIC [1]: > 64 µg/mL | MIC [5]: > 64 µg/mL
Compound: CC1(C)S[C@@H]2[C@H](NC(=O)[C@H](N)c3ccc(O)cc3)C(=O)N2[C@H]1C(=O)O [AMO, amoxicillin]

Compound: O=C(O)[C@H]1/C(=C/CO)O[C@@H]2CC(=O)N21 [CLV, clavulanic acid]
MIC [3]: > 64 µg/mL | MIC (E. coli ATCC 25 922 (–)): 32 µg/mL | MIC [4]: > 64 µg/mL | MIC [1]: > 64 µg/mL | MIC [5]: 64 µg/mL

MIC [3]: > 64 µg/mL | MIC (E. coli ATCC 25 922 (–)): 16 µg/mL | MIC [4]: > 64 µg/mL | MIC [1]: > 64 µg/mL | MIC [5]: > 64 µg/mL
Compound: NC(=O)[C@@H]1CC[C@@H]2CN1C(=O)N2OS(=O)(=O)O [AVI, avibactam]

Compound: C[C@@H](O)[C@H]1C(=O)N2C(C(=O)O)=C(S[C@H]3C[C@@H](C(=O)Nc4cccc(C(=O)O)c4)N(C(=O)C4CCC(CN5C(=O)CC(SC[C@H](NC(=O)[C@H](CCCNC(=N)N)NC(=O)[C@H](CCCNC(=N)N)NC(=O)[C@H](CCCNC(=N)N)NC(=O)[C@H](CCCNC(=N)N)NC(=O)[C@H](CCCNC(=N)N)NC(=O)[C@@H](N)CCCNC(=N)N)C(N)=O)C5=O)CC4)C3)[C@H](C)[C@H]12 (stereo partly shown) [ERT-R6C]
MIC (B. subtilis DSM 10; DSM 10, 20 h): < 0.02 µg/mL | affinity to PBP2A (PBP2A): higher affinity

Compound: CC(C)(O/N=C(\C(=O)N[C@@H]1C(=O)N2C(C(=O)[O-])=C(C[n+]3ccccc3)CS[C@H]12)c1csc(N)n1)C(=O)NCCCCCCN1C(=O)CC(SC[C@H](NC(=O)[C@H](CCCCN)NC(=O)[C@H](CCCCN)NC(=O)[C@H](CCCCN)NC(=O)[C@H](CCCCN)NC(=O)[C@H](CCCCN)NC(=O)[C@@H](N)CCCCN)C(N)=O)C1=O (stereo partly shown) [CTZ-K6] (H-KKKKKKC(X1)-NH2; N-terminus assumed)
MIC (B. subtilis DSM 10; DSM 10, 20 h): 0.02 µg/mL | elimination route / biodistribution (Scintigraphy in mice; mouse, in vivo, iv): renal elimination

Compound: C[C@H]1[C@H](NC(=O)/C(=N\OC(C)(C)C(=O)NCCCCCCN2C(=O)CC(SC[C@H](NC(=O)[C@H](CCCCN)NC(=O)[C@H](CCCCN)NC(=O)[C@H](CCCCN)NC(=O)[C@H](CCCCN)NC(=O)[C@H](CCCCN)NC(=O)[C@@H](N)CCCCN)C(N)=O)C2=O)c2csc(N)n2)C(=O)N1S(=O)(=O)O (stereo partly shown) [AZT-K6] (H-KKKKKKC(X2)-NH2; N-terminus assumed)
MIC (B. subtilis DSM 10; DSM 10, 20 h): 0.25 µg/mL

MIC (B. subtilis DSM 10; [7]): 24 µg/mL | MIC (E. faecalis ATCC 29212; Enterococcus faecalis, ATCC29212, read-out: MIC): 1 µg/mL | MIC ([2]; Enterococcus casseliflavus, ATCC700327, read-out: MIC): > 64 µg/mL
Compound: CC(C)(O/N=C(\C(=O)N[C@@H]1C(=O)N2C(C(=O)O)=C(C[n+]3ccccc3)CS[C@H]12)c1csc(N)n1)C(=O)NCCCCCCN1C(=O)C=CC1=O [CTZ–BB linker]

Compound: C[C@H]1[C@H](NC(=O)/C(=N\OC(C)(C)C(=O)NCCCCCCN2C(=O)CC(SC[C@H](NC(=O)[C@H](CCCCN)NC(=O)[C@H](CCCCN)NC(=O)[C@H](CCCCN)NC(=O)[C@H](CCCCN)NC(=O)[C@H](CCCCN)NC(=O)[C@H](CCCCN)NC(=O)[C@H](CCCCN)NC(=O)[C@H](CCCCN)NC(=O)[C@@H](N)CCCCN)C(N)=O)C2=O)c2csc(N)n2)C(=O)N1S(=O)(=O)O (stereo partly shown) [AZT-K9] (H-KKKKKKKKKC(X2)-NH2; N-terminus assumed)
MIC (B. subtilis DSM 10; DSM 10, 20 h): 0.1 µg/mL

Compound: CC(C)(O/N=C(\C(=O)N[C@@H]1C(=O)N2C(C(=O)[O-])=C(C[n+]3ccccc3)CS[C@H]12)c1csc(N)n1)C(=O)NCCCCCCN1C(=O)CC(SC[C@H](NC(=O)[C@H](CCCNC(=N)N)NC(=O)[C@H](CCCNC(=N)N)NC(=O)[C@H](CCCNC(=N)N)NC(=O)[C@H](CCCNC(=N)N)NC(=O)[C@H](CCCNC(=N)N)NC(=O)[C@H](CCCNC(=N)N)NC(=O)[C@H](N)Cc2ccc(O)cc2)C(N)=O)C1=O (stereo partly shown) [CTZ-yR6] (H-[dY]RRRRRRC(X1)-NH2; N-terminus assumed)
elimination route / biodistribution (Scintigraphy in mice; [6]): mainly accumulated in the liver

MIC (B. subtilis DSM 10; [7]): 0.5 µg/mL
Compound: C[C@@H](O)[C@H]1C(=O)N2C(C(=O)O)=C(S[C@@H]3CN[C@H](C(=O)Nc4cccc(C(=O)O)c4)C3)[C@H](C)[C@H]12 [ERT, ertapenem, reference compound]
